The conditions of data set [1]: 298.15 K; 101.33 kPa; Liquid; Vibrating tube method.
Data set [2] is described as follows: refractive index (Na D-line) (dimensionless). The conditions noted are these: 298.15 K; 101.33 kPa; Liquid; Standard Abbe refractometry.

Each structure is given as a SMILES string. Numbers after ± are expanded uncertainties.

A word on the mass density: it is the mass of a sample divided by its volume. For orientation: refractive index means the speed of light in vacuum divided by its phase velocity in the sample. Take `CC1CCC(=O)O1` (centres undefined) [γ-valerolactone]: the mass density in data set [1] is on record as 1049.25 ± 0.3 kg/m3. In data set [2], the refractive index came to 1.4312 ± 0.0008.
As to `CCCCCCCCCCCCCC` [tetradecane], in data set [1], the mass density turned out to be 759.38 ± 0.26 kg/m3. For the same compound, the refractive index in data set [2] is 1.4269 ± 0.0008.

These data come from the NIST ThermoML archive (doi:10.1016/j.fluid.2018.11.012).
